Test results taken from patent publication US7767659B2, “Synthesis of naturally occurring ecteinascidins and related compounds” (Pharma Mar, S.A., priority 2002, dated 2010).
Like-named read-outs stand apart in the source and are kept apart here.

Experiments:
A-549 = test: cells; conditions: Homo sapiens, A549, 48 h
In short: (§1)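 Colorimetric SRB read (490 nm) on triplicate wells after 48 h at 37 °C, 5% CO2. Dose range 10 to 10^−8 μg/ml; 5×10^3 cells/well pre-attached 18 h.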

HT-29 = test: cells; conditions: Homo sapiens, HT-29, 48 h
In short: as §1

[1] = Inhibition of cells growth by colorimetric assay (SRB); conditions: human
In short: as §1

HMEC1 = test: as above
In short: as §1

LoVo = test: cells; conditions: Homo sapiens, LoVo, 48 h; for GI50: read-out: LOVO GI50; for CC50: read-out: LOVO LC50; for IC (TGI): read-out: LOVO TGI
In short: as §1

DU-145 = test: Inhibition of cells growth by colorimetric assay (SRB); conditions: Homo sapiens, DU-145, 48 h; for GI50: read-out: DU145 GI50; for CC50: read-out: DU145 LC50; for IC (TGI): read-out: DU145 TGI
In short: as §1

HeLa-APL = test: as above; conditions: Homo sapiens, 48 h
In short: as §1

HeLa = test: as above; conditions: Homo sapiens, HeLa, 48 h
In short: as §1

IGROV-1 = test: as above; conditions: Homo sapiens, IGROV-1, 48 h; for GI50: read-out: IGROV GI50; for CC50: read-out: IGROV LC50; for IC (TGI): read-out: IGROV TGI
In short: as §1

IGROV-ET = test: as above; conditions: Homo sapiens, 48 h; for GI50: read-out: IGROV-ET GI50; for CC50: read-out: IGROV-ET LC50; for IC (TGI): read-out: IGROV-ET TGI
In short: as §1

K-562 = test: as above; conditions: Homo sapiens, K562, 48 h; for GI50: read-out: K562 GI50; for CC50: read-out: K562 LC50; for IC (TGI): read-out: K562 TGI
In short: as §1

LNCaP = test: as above; conditions: Homo sapiens, LNCaP, 48 h; for GI50: read-out: LNCAP GI50; for CC50: read-out: LNCAP LC50; for IC (TGI): read-out: LNCAP TGI
In short: as §1

LoVo-Dox = test: as above; conditions: Homo sapiens, 48 h; for GI50: read-out: LOVO-DOX GI50; for CC50: read-out: LOVO-DOX LC50; for IC (TGI): read-out: LOVO-DOX TGI
In short: as §1

PANC-1 = test: as above; conditions: Homo sapiens, PANC-1, 48 h; for GI50: read-out: PANC-1 GI50; for CC50: read-out: PANC-1 LC50; for IC (TGI): read-out: PANC-1 TGI
In short: as §1

SK-BR-3 = test: as above; conditions: Homo sapiens, SK-BR-3, 48 h
In short: as §1

SK-MEL-28 = test: as above; conditions: Homo sapiens, SK-MEL-28, 48 h; for GI50: read-out: MEL-28 GI50; for CC50: read-out: MEL-28 LC50; for IC (TGI): read-out: MEL-28 TGI
In short: as §1

SK-OV-3 = test: as above; conditions: for GI50 / CC50: Homo sapiens, SK-OV-3, 48 h; for GI50: read-out: SK-OV3 GI50; for CC50: read-out: SK-OV3 LC50; for SK-OV3 TGI: SRB, 48 hours exposure
In short: as §1

Structure (SMILES): COc1cc2c(cc1O)CCN[C@]21CS[C@@H]2c3c(OC(C)=O)c(C)c4c(c3[C@H](COC1=O)N1C2C2N[C@@H](Cc3cc(C)c(OC)c(O)c32)[C@@H]1C#N)OCO4 (stereo partly drawn) [compound 15]
- GI50 (A-549; read-out: GI50 A549): 2 nM
- CC50 (A-549; read-out: LC50 A549): 176 nM
- IC (TGI) (A-549; read-out: TGI A549): 7.35 nM
- GI50 (HT-29; read-out: GI50 HT29): 0.484 nM
- CC50 (HT-29; read-out: LC50 HT29): 3130 nM
- IC (TGI) (HT-29; read-out: TGI HT29): 5.35 nM
- CC50 at 48 h [1]: 4440 nM
- TGI H-MEC-1 (HMEC1; H-MEC-1, SRB, 48 hours exposure): 1.32E−08 Molar
- GI50 (HMEC1; Homo sapiens, HMEC-1, 48 h, read-out: GI50 H-MEC-1): 0.556 nM

Structure (SMILES): COc1cc2c(cc1O)CCN[C@]21CS[C@@H]2c3c(O)c(C)c4c(c3[C@H](COC1=O)N1C2[C@@H]2N[C@@H](Cc3cc(C)c(OC)c(O)c32)[C@@H]1O)OCO4 (stereo partly drawn) [compound 68]
- GI50 (A-549; read-out: A549 GI50): 28.1 nM
- CC50 (A-549; read-out: A549 LC50): 6290 nM
- IC (TGI) (A-549; read-out: A549 TGI): 113 nM
- GI50 (HT-29; read-out: HT29 GI50): 6.66 nM
- CC50 (HT-29; read-out: HT29 LC50): 14200 nM
- IC (TGI) (HT-29; read-out: HT29 TGI): 15 nM
- GI50 (LoVo): 12 nM
- CC50 (LoVo): 1930 nM
- IC (TGI) (LoVo): 48 nM
- GI50 (DU-145): 4.68 nM
- CC50 (DU-145): 14200 nM
- IC (TGI) (DU-145): 1.5 nM
- GI50 (HeLa-APL; read-out: HELA-APL GI50): 3.81 nM
- CC50 (HeLa-APL; read-out: HELA-APL LC50): 10.4 nM
- IC (TGI) (HeLa-APL; read-out: HELA-APL TGI): 6.32 nM
- GI50 (HeLa; read-out: HELA GI50): 4 nM
- CC50 (HeLa; read-out: HELA LC50): 12.4 nM
- IC (TGI) (HeLa; read-out: HELA TGI): 7.06 nM
- GI50 (IGROV-1): 3.94 nM
- CC50 (IGROV-1): 35.1 nM
- IC (TGI) (IGROV-1): 8.01 nM
- GI50 (IGROV-ET): 290 nM
- CC50 (IGROV-ET): 8630 nM
- IC (TGI) (IGROV-ET): 1660 nM
- GI50 (K-562): 2.65 nM
- CC50 (K-562): 234 nM
- IC (TGI) (K-562): 6.6 nM
- GI50 (LNCaP): 1.59 nM
- CC50 (LNCaP): 8.64 nM
- IC (TGI) (LNCaP): 3.7 nM
- GI50 (LoVo-Dox): 472 nM
- CC50 (LoVo-Dox): 14200 nM
- IC (TGI) (LoVo-Dox): 14200 nM
- GI50 (PANC-1): 3.9 nM
- CC50 (PANC-1): 2070 nM
- IC (TGI) (PANC-1): 12.8 nM
- GI50 (SK-BR-3; read-out: SK-BR3 GI50): 7.2 nM
- CC50 (SK-BR-3; read-out: SK-BR3 LC50): 14200 nM
- IC (TGI) (SK-BR-3; read-out: SK-BR3 TGI): 153 nM
- GI50 (SK-MEL-28): 5.45 nM
- CC50 (SK-MEL-28): 52.1 nM
- IC (TGI) (SK-MEL-28): 15.7 nM

Structure (SMILES): COc1cc2c(cc1O)CCN[C@]21CS[C@@H]2c3c(OC(C)=O)c(C)c4c(c3[C@H](CNC1=O)N1C2[C@H]2c3c(cc(C)c(OC)c3O)C[C@@H]([C@@H]1C#N)N2C)OCO4 (stereo partly drawn) [compound 76]
- GI50 (A-549; read-out: A549 GI50): 413 nM
- CC50 (A-549; read-out: A549 LC50): 4650 nM
- IC (TGI) (A-549; read-out: A549 TGI): 840 nM
- GI50 (HT-29; read-out: HT29 GI50): 627 nM
- CC50 (HT-29; read-out: HT29 LC50): 13000 nM
- IC (TGI) (HT-29; read-out: HT29 TGI): 1300 nM
- GI50 (LoVo): 274 nM
- CC50 (LoVo): 1300 nM
- IC (TGI) (LoVo): 683 nM
- GI50 (DU-145): 492 nM
- CC50 (DU-145): 13000 nM
- IC (TGI) (DU-145): 1340 nM
- GI50 (IGROV-1): 197 nM
- CC50 (IGROV-1): 5250 nM
- IC (TGI) (IGROV-1): 648 nM
- GI50 (IGROV-ET): 513 nM
- CC50 (IGROV-ET): 1300 nM
- IC (TGI) (IGROV-ET): 924 nM
- GI50 (K-562): 26.9 nM
- CC50 (K-562): 13000 nM
- IC (TGI) (K-562): 130 nM
- GI50 (LNCaP): 46.6 nM
- CC50 (LNCaP): 257 nM
- IC (TGI) (LNCaP): 80.7 nM
- GI50 (LoVo-Dox): 2660 nM
- CC50 (LoVo-Dox): 13000 nM
- IC (TGI) (LoVo-Dox): 8130 nM
- GI50 (PANC-1): 695 nM
- CC50 (PANC-1): 13000 nM
- IC (TGI) (PANC-1): 4970 nM
- GI50 (SK-MEL-28): 238 nM
- CC50 (SK-MEL-28): 1270 nM
- IC (TGI) (SK-MEL-28): 549 nM
- GI50 (SK-OV-3): 547 nM
- CC50 (SK-OV-3): 13000 nM
- SK-OV3 TGI (SK-OV-3): 1.90E−06 Molar

Structure (SMILES): COc1cc2c(cc1O)CCN[C@]21CS[C@@H]2c3c(OC(C)=O)c(C)c4c(c3[C@H](CNC1=O)N1C2[C@H]2c3c(cc(C)c(OC)c3O)CC([C@@H]1O)N2C)OCO4 (stereo partly drawn) [compound 77]
- GI50 (A-549; read-out: A549 GI50): 301 nM
- CC50 (A-549; read-out: A549 LC50): 3650 nM
- IC (TGI) (A-549; read-out: A549 TGI): 728 nM
- GI50 (HT-29; read-out: HT29 GI50): 189 nM
- CC50 (HT-29; read-out: HT29 LC50): 13100 nM
- IC (TGI) (HT-29; read-out: HT29 TGI): 908 nM
- GI50 (LoVo): 241 nM
- CC50 (LoVo): 13100 nM
- IC (TGI) (LoVo): 917 nM
- GI50 (DU-145): 301 nM
- CC50 (DU-145): 13100 nM
- IC (TGI) (DU-145): 1160 nM
- GI50 (IGROV-1): 58 nM
- CC50 (IGROV-1): 6320 nM
- IC (TGI) (IGROV-1): 272 nM
- GI50 (IGROV-ET): 652 nM
- CC50 (IGROV-ET): 13100 nM
- IC (TGI) (IGROV-ET): 1700 nM
- GI50 (K-562): 16.6 nM
- CC50 (K-562): 13100 nM
- IC (TGI) (K-562): 101 nM
- GI50 (LNCaP): 43.5 nM
- CC50 (LNCaP): 118 nM
- IC (TGI) (LNCaP): 71 nM
- GI50 (LoVo-Dox): 929 nM
- CC50 (LoVo-Dox): 13100 nM
- IC (TGI) (LoVo-Dox): 5660 nM
- GI50 (PANC-1): 418 nM
- CC50 (PANC-1): 13100 nM
- IC (TGI) (PANC-1): 2720 nM
- GI50 (SK-MEL-28): 63.1 nM
- CC50 (SK-MEL-28): 756 nM
- IC (TGI) (SK-MEL-28): 175 nM
- GI50 (SK-OV-3): 439 nM
- CC50 (SK-OV-3): 13100 nM
- SK-OV3 TGI (SK-OV-3): 4.86E−06 Molar
